This is an account of results in patent US6716442B2, “Process and means for the eradication of fleas in the habitats of small mammals” (Merial, priority 1997, dated 2004).

Where two headings read alike, the source gives them in different places.

For assay [1], the system named is fleas. As to conditions: cats; concentrated solution for point application (spot on); cited from earlier work.
The test system of assay [2] is fleas (Ctenocephalides felis). As to the kind of experiment: Eradication of fleas in enclosures of infested dogs treated monthly with a spot-on solution. The assay is classed as in vivo. As to conditions: group C, 10% fipronil cutaneous point solution on days 0, 28, 56, 84, weekly egg counts, body and comb counts over weeks 1-12, regularly reinfested. The text has this:
The test used dogs in good health.
The dogs were divided by groups of three dogs into enclosures of area approximately 4.80 m long (16 feet) and 1.5 m wide (5 feet) each containing a shelter and soil especially favourable to the development of the immature stages of the fleas (Ctenocephalides felis).
A total of 18 dogs, that is to say six enclosures, was allocated to the control group A.
A group C of six dogs (2 enclosures) preinfested in this way received the treatment according to the invention by application of a cutaneous point solution having a concentration of 10% of fipronil.
The doses of concentrated composition for local cutaneous application of fipronil were as follows:
The animals of group C were treated on day 0 and then every 28 days, that is to say the days 28, 56 and 84.

Assay [3] has as its system fleas. Description: Similar flea eradication test on cats. As to conditions: same results as dogs. The class given is in vivo.
Assay [4] relates to fleas. The conditions noted are these: dogs; concentrated solution for point application (spot on); cited from earlier work.

For `N#Cc1nn(-c2c(Cl)cc(C(F)(F)F)cc2Cl)c(N)c1[S+]([O-])C(F)(F)F` (stereo not shown) [fipronil, 1-[2,6-Cl2-4-CF3-phenyl]-3-CN-4-[SO—CF3]-5-NH2-pyrazole], the “period of anti-flea efficacy” value is reported as “six” in the assay on fleas [1] and 2 to 3 months in the assay on fleas [4]. In assay [2], the “rate of control of the infestation” value is given as 100%. In the assay with fleas [3], the reinfestation entry was “total absence of reinfestation”.
